Test results from PubChem BioAssay (NCI).
“And” between values parts separate entries of the source, which are not always exact repeats. Identical values can stand only once.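 Five concentrations, 48 hours, 96-well plates. Abbreviation: GI50, concentration required for 50% inhibition of growth. TGI: concentration producing complete growth inhibition.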 Where a SMILES comes first, the peptide text is derived from it. [ ]: non-standard residue; d: D form. 2Nal = N[CH](Cc1ccc2ccccc2c1)C(=O)O

Columns and labels:
Assay in all cases: inhibition of tumour cell growth, NCI panel, 48 h
ACHN renal = test system: ACHN renal
HS 578T breast = test system: HS 578T breast
K-562 leukemia = test system: K-562 leukemia
LOX IMVI melanoma = test system: LOX IMVI melanoma
M14 melanoma = test system: M14 melanoma
MDA-MB-231 breast = test system: MDA-MB-231 breast
OVCAR-5 ovarian = test system: OVCAR-5 ovarian
SK-OV-3 ovarian = test system: SK-OV-3 ovarian
SR leukemia = test system: SR leukemia
UACC-62 melanoma = test system: UACC-62 melanoma

Row | SMILES | TGI (ACHN renal) [µM] | TGI (HS 578T breast) [µM] | TGI (K-562 leukemia) [µM] | TGI (LOX IMVI melanoma) | TGI (M14 melanoma) | TGI (MDA-MB-231 breast) [µM] | TGI (OVCAR-5 ovarian) [µM] | TGI (SK-OV-3 ovarian) [µM] | TGI (SR leukemia) | TGI (UACC-62 melanoma) | GI50 (ACHN renal) [µM] | GI50 (HS 578T breast) [µM] | GI50 (K-562 leukemia) [µM] | GI50 (LOX IMVI melanoma) [µM] | GI50 (M14 melanoma) [µM] | GI50 (MDA-MB-231 breast) [µM] | GI50 (OVCAR-5 ovarian) [µM] | GI50 (SK-OV-3 ovarian) [µM] | GI50 (SR leukemia) | GI50 (UACC-62 melanoma) [µM]
1 | CC(=O)O[C@H]1C(=O)[C@@]2(C)[C@H]([C@H](OC(=O)c3ccccc3)[C@@]3(O)C[C@H](O)C(C)=C1C3(C)C)[C@]1(OC(C)=O)CO[C@@H]1C[C@@H]2O | > 100 | 96.3 | > 100 | > 100 µM | 74.8 µM | > 100 | > 100 | 69.1 | > 100 µM | > 100 µM | – | – | – | – | – | – | – | – | – | –
2 | C/C=C(/C)C(=O)OC1C=C(CO)C(=O)C(OC(=O)C(C)(O)C(C)Cl)C1C(C)C (configuration not stated) | 2.06 | 24.4 | 12.5 | 2.82 µM | 3.5 µM | 2.26 | 2.72 | 14.9 | 2.16 µM | 2.05 µM | 0.829 | 4.78 | 0.396 | 1.31 | 1.6 | 0.758 | 0.971 | 4.5 | 0.255 µM | 0.744
3 | C=C1NC(=O)C(CC(C(=O)C(=O)Nc2c(C)cccc2C(C)(C)C)C(=O)c2ccc3ccccc3c2)C(=O)N1 (configuration not stated) | > 100 | > 100 | > 100 | > 100 µM | > 100 µM | > 100 | > 100 | > 100 | > 100 µM | > 100 µM | – | – | – | – | – | – | – | – | – | –
4 | CC1CCc2c(c(CC3CC(=O)NC(=O)C3)nn2-c2ccccc2)C1 (configuration not stated) | > 100 | > 100 | > 100 | > 100 µM | > 100 µM | > 100 | > 100 | > 100 | > 100 µM | > 100 µM | – | – | – | – | – | – | – | – | – | –
5 | COc1cc2ncn(-c3cc(OCc4ccccc4C(F)(F)F)c(C(C)=O)s3)c2cc1OC | > 25 | > 25 | > 25 | > 25 µM | > 25 µM | > 25 | > 25 | > 25 | > 25 µM | > 25 µM | > 25 | 19.3 | > 25 | > 25 | > 25 | 24.2 | > 25 | > 25 | > 25 µM | > 25
6 | CCCN1C(=O)/C(=C/c2ccc(O)cc2)SC1=Nc1ccc(OC)cc1 | 25.3 | 23.3 | > 100 | 30.8 µM | 60.6 µM | 31 | 29.6 | 41.9 | > 100 µM | 33.7 µM | 12.7 | 4.48 | 12.5 | 15.4 | 26.8 | 14.1 | 15.9 | 18.1 | 10.4 µM | 17.6
7 | CCc1nc2cc(/C=C/C(=O)NO)ccc2c(=O)n1CCc1ccc(F)cc1 | 3.27 | > 100 | > 100 | 2.78 µM | 3.6 µM | 4.67 | > 100 | 4.3 | > 100 µM | – | 1.5 | 2.26 | 2.37 | 1.35 | 1.65 | 1.32 | 2.19 | 1.93 | 1.74 µM | –
8 | Cc1nnc(-c2ccc(C)c(-c3ccc(C(=O)NCc4ccc(Cl)cc4)cc3)c2)o1 | > 25 | > 25 | > 25 | > 25 µM | > 25 µM | > 25 | > 25 | > 25 | > 25 µM | > 25 µM | 12.4 | 10.7 | 7.64 | > 25 | 15.7 | 10.4 | > 25 | 9.53 | 11.9 µM | 8.21
9 | CC[C@@H](C)Nc1cc(C(=O)NC2CC3CCC(C2)N3c2ccc(C(=O)C3CC3)cn2)c(C)cc1C(N)=O (some centres not stated) | > 100 | > 100 | > 100 | 0.102 µM | > 84 µM | > 100 | > 100 | > 100 | > 47.6 µM | 12.1 µM | 0.0441 | 0.186 | 0.0378 | 0.0301 | 0.0489 | 0.0538 | 0.0706 | < 0.0114 | 0.0189 µM | 0.036
10 | COC(=O)c1ccc2c(c1)c1c(C)c3ccncc3c(C)c1n2C | > 100 | > 100 | > 100 | 10.8 µM | 36.3 µM | > 100 | > 100 | > 100 | 3.39 µM | 2.63 µM | 0.0519 | 0.561 | 0.2 | 0.0887 | 0.453 | 0.391 | 0.718 | 0.471 | 0.0575 µM | 0.191
11 | Cc1cc(NNC(=O)c2ccccc2O)nc(Nc2nc3ccccc3o2)n1 | 12.2 | 37.5 | > 66.2 | 4.41 µM | 3.44 µM | 16.2 | 15.9 | 2.22 | 7.31 µM | 11.4 µM | 1.02 | 3.26 | 2.31 | 0.607 | 0.854 | 0.71 | 2.52 | 0.633 | 0.602 µM | 0.966
12 | CC(C)C(NC(=O)C(CCCCN)NC(=O)C(Cc1c[nH]c2ccccc12)NC(=O)C(Cc1ccc(O)cc1)NC(=O)C(CS)NC(=O)C(N)Cc1ccc2ccccc2c1)C(=O)NC(CS)C(=O)NC(C(N)=O)C(C)O (configuration not stated) (H-[2Nal]CYWKVCT-NH2; configuration not given here) | > 100 | > 12.5 | > 100 | > 12.5 µM | > 100 µM | > 12.5 | > 12.5 | > 100 | > 100 µM | > 100 µM | > 100 | – | > 100 | – | > 100 | – | – | > 100 | > 100 µM | > 100
13 | CN1CCN(Cc2ccc(NC(=O)c3cncc(C#Cc4cnn5ccccc45)c3)cc2C(F)(F)F)CC1 | 3.72 | 2.91 | 3.16 | 1.37 µM | 1.39 µM | 3.05 | 5.09 | 4.61 | 2.82 µM | 2.38 µM | 0.873 | 0.735 | 0.005 | 0.588 | 0.576 | 0.608 | 1.12 | 1.51 | 0.322 µM | 0.996
14 | Nc1nc(N)c(N=Nc2ccc(C(=O)O)c(O)c2)c(N)n1 | > 100 | > 100 | > 100 | > 100 µM | > 100 µM | > 100 | > 100 | > 100 | > 100 µM | > 100 µM | – | – | – | – | – | – | – | – | – | –
15 | CCOc1c(C#N)c2c(N)ncnc2n1C1OC(CO)C(O)C1O (configuration not stated) | > 100 | 14 | 16.4 | > 100 µM | 5.57 µM | > 82.9 | > 100 | 53.1 | 5.5 µM | 10 µM | 2.95 | 2.12 | 1.5 | 2.98 | 1.92 | 6.15 | 7.02 | 3.34 | 1.3 µM | 2.76
16 | C1CCN2CC3CCCN4CCCC(C2C1)C34 (configuration not stated) | > 100 | > 100 | > 100 | > 100 µM | > 100 µM | > 100 | > 100 | > 100 | > 100 µM | > 100 µM | – | – | – | – | – | – | – | – | – | –
17 | O=C1C(=O)N(c2cccc(C(F)(F)F)c2)C(=O)C(=O)C1c1nc2ccccc2s1 | > 100 | > 100 | > 100 | > 100 µM | > 100 µM | > 100 | > 100 | > 100 | 83.6 µM | > 100 µM | – | – | – | – | – | – | – | – | – | –
18 | CCN(CC)CC(C)(C)C(=O)/C=C/c1ccc(/C=C/C(=O)C(C)(C)CN(CC)CC)cc1 | 3.09 | 4.45 | – | 1.04 µM | 2.46 µM | 0.756 | 2.93 | 4.08 | 0.758 µM | 4.89 µM | – | – | – | – | – | – | – | – | – | –
19 | CC(CCCC1SCC2NC(=O)NC21)C(=O)O (configuration not stated) | > 100 | > 100 | > 100 | > 100 µM | > 100 µM | > 100 | > 100 | > 100 | > 100 µM | > 100 µM | – | – | – | – | – | – | – | – | – | –
20 | O=C(Nc1ccc2c(c1)OCO2)C(=O)c1c[nH]c2cc(F)ccc12 | 20.4 | 62.7 | 20.8 | > 100 µM | 10.9 µM | 25.4 | > 100 | 15.2 | 19.6 µM | 1.58 µM | 0.547 | 2.63 | 0.6 | 0.476 | 0.466 | 2.12 | 17.9 | 4.24 | 2.85 µM | 0.238
21 | COc1ccc(/C=C2\CC(C)CC3C2=NN(c2ccccc2)C3c2ccc(OC)c(OC)c2)cc1OC (configuration not stated) | 48.6 | > 100 | 5.4 | 4.8 µM | – | 13.2 | 12.1 | > 100 | 12.4 µM | 17.3 µM | 4.48 | > 100 | 1.85 | 2.19 | – | 3.24 | 3.16 | 9.29 | 2.82 µM | 4.29
22 | CC1CC(C)C2=NOS3=C2C1=NO3 (configuration not stated) | > 100 | > 100 | > 100 | > 100 µM | > 100 µM | > 100 | > 100 | > 100 | > 100 µM | > 100 µM | – | – | – | – | – | – | – | – | – | –
23 | COC(=O)C1=C(C(=O)OC)C2OC1c1cc3ccccc3cc12 | 3.03 | 43.6 | – | 30.5 µM | 4.83 µM | 33.7 | 11.3 | 33 | 3.55 µM | 27.9 µM | – | – | – | – | – | – | – | – | – | –
24 | NC(=Nc1nc(-c2ccccn2)cc2ccccc12)c1ccccn1 | – | > 79.4 | 5.3 | 0.677 µM and 1.23 µM | 0.534 µM and 2.86 µM | > 100 | > 100 | > 19.4 | 0.243 µM and 0.722 µM | 0.171 µM and 0.266 µM | 0.0115 | 0.316 | 0.0199 | 0.158 | 0.00816 | 0.941 | 0.176 | 0.263 | 0.0619 µM and < 0.0145 µM | 0.0492
25 | CCCCCCN(C)Cc1ccc(OCCOc2ccc(CN(C)CCCCCC)cc2)cc1 | 3.63 | 3.97 | > 100 | 2.87 µM | 1.83 µM | 2.84 | 4.03 | 3.09 | 11.6 µM | 3.4 µM | 1.62 | 1.47 | 0.452 | 1.35 | 0.448 | 1.22 | 1.46 | 1.64 | 1.04 µM | 1.6
26 | O=S(=O)(Nc1ccc2ccccc2c1)c1ccc(-c2cnc(C3CC3)o2)cc1 | 42.8 | 13.2 | > 100 | 17.1 µM | 14.9 µM | 14.2 | 23.4 | 32.3 | > 100 µM | 14.5 µM | 2.61 | 0.811 | 0.394 | 0.725 | 0.701 | 2.81 | 3.01 | 1.54 | 0.377 µM | 0.914
27 | COc1ccc2c(c1)N(CCO)C1=C(C(=O)OC1)C2c1ccccc1 (configuration not stated) | > 50 | 4.99 | > 50 | > 50 µM | 4.65 µM | 41.7 | > 50 | > 50 | > 50 µM | > 50 µM | 3.78 | 1.39 | 1.23 | 2.92 | 1.4 | 5.99 | 3.77 | 1.9 | 1.69 µM | 1.72
28 | O=C(NNC(=S)Nc1ccccc1)c1ccccn1 | > 100 | > 100 | > 100 | > 100 µM | 12.3 µM | > 100 | > 100 | > 100 | > 100 µM | – | 1.22 | 23.7 | 3.95 | 2.31 | 2.1 | 3.85 | > 100 | 7.33 | 1.63 µM | –
